In publication PMC10384572, “Marine Meroterpenoids Isolated from Gongolaria abies-marina Induce Programmed Cell Death in Naegleria fowleri” (Pharmaceuticals, 2023):

Columns and labels:
[1] = system: N. fowleri ATCC® 30808 trophozoites; experiment: ATP production (Celltiter-Glo Luminescent Cell Viability Assay); assay type: cell-based, Naegleria fowleri; details: IC90 of compound, 24 h, 2 × 10^5 cells/mL
Description: The evaluation of the programmed cell death induction by the meroterpenoids was performed in the ATCC® 30808™ N. fowleri trophozoites. Cells were incubated over 24 h with the IC90 (Table 1) of the compounds at 37 °C. In these experiments, the presence of different metabolic events which are characteristics of the programmed cell death process were evaluated. For this, five different apoptosis events marker kits (the Hoechst 33342/Propidium Iodide, SYTOX™ Green kit, CellROX® Deep Reagent, JC-1 Mitochondrial Membrane Potential Detection Kit, and the Celltiter-Glo® Luminescent Cell Viability Assay) were used according to manufacturer’s instructions. Furthermore, the percentage of stained cells was determined after incubating the treated and non-treated cells with the stains. On the other hand, the measurement of the ATP production was also assessed in order to confirm the mitochondrial damage in the amoebae. For this, the Celltiter-Glo® Luminescent Cell Viability Assay (Promega Biotech Ibérica, Madrid, Spain) was used. The emitted luminescence, which is proportional to the ATP levels, was measured in an EnSpire® Multimode Plate Reader (Perkin Elmer, Madrid, Spain). Experiments were performed in triplicate. In both treated and untreated cells, the ATP production of a concentration of 2 × 10^5 cells/mL was measured.

[2] = system: N. fowleri ATCC® 30808 trophozoites; experiment: Chromatin condensation detection (Hoechst 33342/propidium iodide); assay type: cell-based, Naegleria fowleri; details: IC90 of compound, 24 h
Description: The evaluation of the programmed cell death induction by the meroterpenoids was performed in the ATCC® 30808™ N. fowleri trophozoites. Cells were incubated over 24 h with the IC90 (Table 1) of the compounds at 37 °C. In these experiments, the presence of different metabolic events which are characteristics of the programmed cell death process were evaluated. For this, five different apoptosis events marker kits (the Hoechst 33342/Propidium Iodide, SYTOX™ Green kit, CellROX® Deep Reagent, JC-1 Mitochondrial Membrane Potential Detection Kit, and the Celltiter-Glo® Luminescent Cell Viability Assay) were used according to manufacturer’s instructions. Furthermore, the percentage of stained cells was determined after incubating the treated and non-treated cells with the stains. For the chromatin condensation assay, the Hoechst 33342 and the PI (Life Technologies, Madrid, Spain) were used. The images were captured in the EVOS™ M5000 Imaging System (Invitrogen by Thermo Fisher Scientific). A concentration of 5 × 10^5 cell/mL was seeded and incubated with compounds over 24 h. Three different cell population can be distinguished with this kit. Firstly, healthy cells will barely show blue fluorescence whereas in the presence of condensed chromatin an intense blue fluorescence corresponding to the Hoechst 33342 stain will be observable. Finally, dead cells will show red fluorescence due to the linkage between the nucleus and the PI. In the PCD assays, the number of stained and unstained cells was measured after the performance of the experiments. Regarding the JC-1 Mitochondrial Membrane Potential assays, the ratio between the emitted red fluorescence (at 595 nm) and green fluorescence (at 535 nm) was determined. For each kit, images (×40) with at least 80 cells were selected and analyzed. […] The graphs illustrate the mean value ± SD of three different tests. Finally, a one-way analysis of variance (ANOVA) was assessed to determine the statistical differences between the treated cells and the negative control amoebae, ** p < 0.01; *** p < 0.001; **** p < 0.0001 significant differences.

[3] = system: N. fowleri ATCC® 30808 trophozoites; experiment: Plasma membrane permeability (SYTOX Green); assay type: cell-based, Naegleria fowleri; details: IC90 of compound, 24 h
Description: The evaluation of the programmed cell death induction by the meroterpenoids was performed in the ATCC® 30808™ N. fowleri trophozoites. Cells were incubated over 24 h with the IC90 (Table 1) of the compounds at 37 °C. In these experiments, the presence of different metabolic events which are characteristics of the programmed cell death process were evaluated. For this, five different apoptosis events marker kits (the Hoechst 33342/Propidium Iodide, SYTOX™ Green kit, CellROX® Deep Reagent, JC-1 Mitochondrial Membrane Potential Detection Kit, and the Celltiter-Glo® Luminescent Cell Viability Assay) were used according to manufacturer’s instructions. Furthermore, the percentage of stained cells was determined after incubating the treated and non-treated cells with the stains.
The evaluation of the damage in the cell membrane permeability was conducted with the SYTOX Green assay (Life Technologies, Madrid, Spain). Amoebae were incubated with the molecules over 24 h at 37 °C. An EVOS™ M5000 Imaging System (Invitrogen by Thermo Fisher Scientific) was used to observe the trophozoites. Cells with compromised plasma membrane permeability show bright green fluorescence as the stain reaches the nucleus. However, no fluorescence is observed in negative control cells.
In the PCD assays, the number of stained and unstained cells was measured after the performance of the experiments. Regarding the JC-1 Mitochondrial Membrane Potential assays, the ratio between the emitted red fluorescence (at 595 nm) and green fluorescence (at 535 nm) was determined. For each kit, images (×40) with at least 80 cells were selected and analyzed. […] The graphs illustrate the mean value ± SD of three different tests. Finally, a one-way analysis of variance (ANOVA) was assessed to determine the statistical differences between the treated cells and the negative control amoebae, ** p < 0.01; *** p < 0.001; **** p < 0.0001 significant differences.

[4] = system: Murine macrophages J774A.1 (ATCC® TIB-67); experiment: In vitro cytotoxicity against murine macrophages (alamarBlue); assay type: cell-based; details: murine macrophages J774A.1, 24 h, mean ± SD
Description: Murine macrophages from the J774A.1 cell line (ATCC® TIB-67) were maintained in Dulbecco’s Modified Eagle’s medium (DMEM) in order to evaluate the toxicity of the compounds. In addition, 10% (v/v) FBS and 10 μg/mL gentamicin (Sigma-Aldrich, Madrid, Spain) were added to the growth medium. Cells were grown in a 5% CO2 atmosphere at 37 °C.
For the cytotoxicity assays, the same protocol as detailed in Section 4.4 above was used. Murine macrophages were incubated with serial dilutions of the evaluated compounds at 37 °C in a 5% CO2 atmosphere over 24 h. The obtained data were analyzed as described in the previous section in order to calculate the CC50.
The in vitro IC50, IC90, and CC50 of the compounds were determined by a non-linear regression with a 95% confidence limit. The SigmaPlot 12.0 software (Systat Sofware Inc., London, UK) was used to perform the data analysis using a paired two-tailed t-test. Values of p < 0.05 were considered significant. The data represent the mean value and the SD of the conducted three different experiments.

Row | Structure (SMILES) | Decrease of ATP production compared to untreated cells [1] [%] | Apoptotic phase suggested by Hoechst/PI staining [2] | Chromatin condensation (Hoechst 33342 stain) [2] | Propidium iodide (PI) red fluorescence [2] | Plasma membrane permeability damage (SYTOX green) [3] | CC50 [4] [µM]
1 | COc1c(C)cc(O)cc1C/C=C(\C)CC(=O)/C=C(\C)CCC[C@@H](C)C(=O)/C=C/C(C)(C)O [1′Methoxyamentadione (3), 1′-methoxyamentadione] | 82.62 | early apoptotic phase | induced DNA condensation | no red fluorescence | plasma membrane permeability damage | 
2 | COc1c(C)cc(O)cc1C/C=C(\C)CC(=O)/C=C(/C)CCC[C@@H](C)C(=O)/C=C/C(C)(C)O [6Z-1′Methoxyamentadione (2), 6Z-1′-methoxyamentadione] | 92.49 | late apoptotic phase | induced DNA condensation | showed red fluorescence | plasma membrane permeability damage | 
3 | COc1c(C)cc(O)cc1C/C=C(\C)CC(=O)/C=C(\C)CCCC(C)=O [Cystomexicone B (6), cystomexicone B] | 65.59 | early apoptotic phase | induced DNA condensation | no red fluorescence | plasma membrane permeability damage | > 500
4 | COc1c(C)cc(O)cc1C/C=C(\C)CC(=O)C/C(C)=C/CC[C@@H](C)C(=O)/C=C/C(C)(C)O [Gongolarone B (1), gongolarone B] | 85.75 | late apoptotic phase | induced DNA condensation | showed red fluorescence | plasma membrane permeability damage | 
